Results taken from publication PMC8648852, “Pyrazoline derivatives as promising novel antischistosomal agents” (Scientific Reports, 2021).

Key:
S. mansoni adult worm = test: In vitro antischistosomal assay (viability of ex vivo adult worms); format: cell-based, Schistosoma mansoni; conditions: for EC50: 72 h, ex vivo adult schistosomes, brackets = 95% confidence interval
Protocol: For biological screening, S. mansoni adult parasites were isolated from the mouse infection model (parasite ex vivo) and all compounds were initially screened at 50 µM. The gold-standard antiparasitic compound praziquantel was used as a positive control and DMSO at 0.5% v/v (representing the highest concentration of solvent) served as a negative control. […] For the remaining compounds tested, no EC50 values could be calculated due to lack of activity at 50 μM. […] In tandem, our findings confirm that pyrazolines have a potent antiparasitic activity. Indeed, few compounds in the literature are active at low concentrations for review see[11],[19]. According to criteria established by the World Health Organization (WHO) for antiparasitic hits, leads, and drug candidates, at the start of a screening campaign a compound should inhibit mobility of helminths in vitro at 10 μg/mL[20], commonly ranging from 30 to 40 μM. Thus, the anthelminthic activity of pyrazolines surpasses criteria established by the WHO.
(§1) Adult schistosomes (BH strain) were isolated from infected mice and cultured in RPMI medium + 10% fetal calf serum and 100 U/mL penicillin and 100 μg/mL streptomycin in a 24-well culture plate (Corning, New York, NY, USA) containing one pair of parasites per well at 37 °C and 5% CO2 (Panasonic Healthcare, Sakata, Oizumi-machi, Japan)[38],[39]. For antischistosomal assay, compounds were dissolved in DMSO (final concentration of 0.5% v/v). Each drug concentration was tested at least in triplicate, and the experiments were repeated three times. The initial concentration of the pyrazolines and praziquantel was 50 μM and 3 μM, respectively, which was serially diluted in medium with twofold dilutions to give six concentrations[40],[41]. The negative control worms were assayed in RPMI 1640 medium and RPMI 1640 with 0.5% DMSO. Parasites were monitored daily at 24, 48 and 72 h under a stereomicroscope (Leica Microsystems EZ4E, Wetzlar, Germany) and an inverted microscope (BEL Engineering INV 100, Monza, MB, Italy). Egg production was evaluated daily as previously described. Parasite viability was averaged and 50% effective concentrations (EC50) were calculated using GraphPad Prism software[24],[43].

[1] = Cytotoxicity assay (MTT), SH-SY5Y cells; format: cell-based, human; conditions: human, SH-SY5Y cells (human neuroblastoma); SH-SY5Y cells, 72 h, MTT
Protocol: (§2) The selectivity index (SI) of a compound is a widely accepted parameter used to express a drug’s in vitro efficacy. Therefore, the cytotoxic effect of these six pyrazolines (16, 18, 19, 21, 22 and 23) was evaluated using a monkey cell line (Vero) and a human cell line (SH-SY5Y). Cells were incubated with each compound at a range of concentrations for determination of cytotoxic concentrations 50% (CC50). […] With the EC50 data collected for schistosomes as well as the CC50 for animal and human cells, the selectivity indices (SI) were determined for each of the pyrazolines tested (Table 1). […] A SI value ≥ 10 is in accordance with the criteria defined by the WHO for antiparasitic hits, leads, and drug candidates. […] Comparatively, the SI values achieved with pyrazolines exceeded those obtained for other relevant heterocyclic compounds with antischistosomal properties[21],[22]. Although the SI values recorded for pyrazolines were more than 10 times below those for the reference drug praziquantel, a SI value ≥ 10 fulfills and exceeds the criteria established by the WHO for potential compounds as anthelmintic agents. The cytotoxicity of compounds was tested against Vero cells (African green monkey kidney cells obtained from the American Type Culture Collection, ATCC; Manassas, VA, USA) and SH-SY5Y cells (human neuroblastoma obtained from Banco de Células do Rio de Janeiro, BCRJ, RJ, Brazil). Cells was cultured in DMEM medium supplemented with 10% fetal calf serum, penicillin (100 U/mL) and streptomycin (100 µg/mL) and 2 mM of L-glutamine at 37 °C and in a 5% CO2 humidified incubator (Panasonic). The DMEM contained 1 or 4 mg/mL glucose for Vero and SH-SY5Y cells, respectively. Cytotoxicity assay was performed as previously described[25],[26]. Briefly, cells were seeded in 96-well plates (Corning) in DMEM medium and incubated with twofold serial drug starting at 200 μM following a 24 h adhesion period at 37 °C in 5% CO2. After 72 h, MTT was added and incubation was continued for another 3 h. The plate was then read using spectrophotometer (Epoch Microplate Spectrophotometer, BioTek Instruments, Winooski, VT, USA) at 595 nm. The assay was conducted in duplicate and repeated three times. Values were expressed as percentage of the control and 50% cytotoxic concentration (CC50) values were calculated. The selectivity indices (SI) of tested compounds were calculated by dividing CC50 values obtained on mammalian cells with EC50 values determined on S. mansoni.

SH-SY5Y cells = test: Cytotoxicity assay (MTT), SH-SY5Y cells; format: cell-based, human; conditions: CC50 (SH-SY5Y) divided by EC50 (S. mansoni)
Protocol: as §2

Vero cells = test: Cytotoxicity assay (MTT), Vero cells; format: cell-based, African green monkey; conditions: CC50 (Vero) divided by EC50 (S. mansoni)
Protocol: as §2

[2] = Cytotoxicity assay (MTT), Vero cells; format: cell-based, African green monkey; conditions: African green monkey, Vero cells (African green monkey kidney cells); Vero cells, 72 h, MTT; brackets = 95% confidence interval
Protocol: as §2

[3] = system: paired adult schistosomes (S. mansoni); test: Egg production (fecundity) of paired adult schistosomes in vitro; format: cell-based, Schistosoma mansoni; conditions: sublethal concentrations (6.25 μM for 16, 12.5 μM for 19 and 23), compared to control
Protocol: Based on antischistosomal properties of pyrazolines 16, 18, 19, 21, 22 and 23, the ability of these six compounds to affect fecundity (egg production) was subsequently measured. […] To further investigate this effect on schistosome fecundity, parasites were tested using sublethal concentrations (3.5 μM for compound 22, 6.25 μM for compound 16, and 12.5 μM for compounds 18, 19, 21, and 23).
as §1

EC50 (S. mansoni adult worm; Schistosoma mansoni): < 20 µM | EC50 (S. mansoni adult worm): 17.4 µM
Compound: Cc1ccc(C2CC(c3ccc(F)cc3)=NN2C(N)=O)cc1 (stereo not drawn) [Compound 19, 3-(4-fluorophenyl)-4,5-dihydro-5-p-tolylpyrazole-1-carboxamide]
Time until all parasites were dead (S. mansoni adult worm; 50 μM): ≤ 24 h | Antiparasitic activity in initial screen (S. mansoni adult worm; 50 µM, after 72 h, adult worms): showed antiparasitic activity | CC50 at 72 h [1]: > 200 µM | Human cells SI (selectivity index) (SH-SY5Y cells): > 11.5 | Monkey cells SI (selectivity index) (Vero cells): 9.7 | CC50 at 72 h [2]: 169 µM | Reduction in the number of eggs [3]: 30–70%
